Biological target: T1, human PPAR γ 2 (Homo sapiens, UniProt P37231)
T1 construct: expressed in transfected cells; host or cells: human osteosarcoma MG63, transiently co-transfected with pSG5-hPPARg and the reporter pGV-P2-PPRE
T1 sequence (P37231 1-505): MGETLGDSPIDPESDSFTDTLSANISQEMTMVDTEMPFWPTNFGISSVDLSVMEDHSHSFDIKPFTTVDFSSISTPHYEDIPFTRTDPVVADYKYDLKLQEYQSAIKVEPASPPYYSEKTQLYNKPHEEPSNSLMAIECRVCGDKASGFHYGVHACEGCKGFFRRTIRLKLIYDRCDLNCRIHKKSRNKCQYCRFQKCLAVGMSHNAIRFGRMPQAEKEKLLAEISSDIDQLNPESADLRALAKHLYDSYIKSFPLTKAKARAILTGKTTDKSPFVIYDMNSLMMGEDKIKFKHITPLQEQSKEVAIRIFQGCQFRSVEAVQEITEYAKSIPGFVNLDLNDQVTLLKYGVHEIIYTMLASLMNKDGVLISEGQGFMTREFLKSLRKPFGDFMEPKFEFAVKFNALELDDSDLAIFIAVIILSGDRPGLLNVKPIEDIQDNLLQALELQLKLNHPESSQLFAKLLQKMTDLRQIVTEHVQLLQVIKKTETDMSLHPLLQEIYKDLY
Experiment: Inhibitory activity against PPAR γ transcription in the presence of agonist compound A, luciferase reporter
Format: cell-based
Settings: in the presence of 10 nM compound A (agonist); MG63 cells transfected with pSG5-hPPARg and pGV-P2-PPRE; 24 hr

IC50	Compound
61 nM	Cc1nnc(NS(=O)(=O)c2ccc(NC(=O)c3cc([N+](=O)[O-])ccc3Cl)cc2)s1 [Example 101, N-[4-[(5-Methyl-[1,3,4]thiadiazol-2-yl)aminosulfonyl]phenyl]-(2-chloro-5-nitrophenyl)carboxamide]
270 nM	Cc1noc(NS(=O)(=O)c2ccc(NC(=O)c3cc([N+](=O)[O-])ccc3Cl)cc2)c1C [Example 104, N-[4-[(3,4-Dimethylisoxazol-6-yl)aminosulfonyl]phenyl]-(2-chloro-5-nitrophenyl)carboxamide]
8.6 nM	CC(=O)Nc1ccc(-c2ccc(NC(=O)c3cc([N+](=O)[O-])ccc3Cl)cc2)cc1 [Example 118, N-[4-(4-Acetylaminophenyl)phenyl]-(2-chloro-5-nitrophenyl)carboxamide]
13 nM	O=C(Nc1ccc(-c2ccc(NC(=O)c3cc([N+](=O)[O-])ccc3Cl)cc2)cc1)c1ccccc1 [Example 120, N-[4-(4-Benzoylaminophenyl)phenyl]-(2-chloro-5-nitrophenyl)carboxamide]
8.1 nM	O=C(Nc1ccc(-c2ccc(NC(=O)c3cc([N+](=O)[O-])ccc3Cl)cc2)cc1)c1cccnc1 [Example 124, N-[4-[4-(Pyridin-3-ylcarbonylamino)phenyl]phenyl]-(2-chloro-5-nitrophenyl)carboxamide]
14 nM	O=C(Nc1ccc(-c2ccc(NC(=O)c3cc([N+](=O)[O-])ccc3Cl)cc2)cc1)c1ccncc1 [Example 126, N-[4-[4-(Pyridin-4-ylcarbonylamino)phenyl]phenyl]-(2-chloro-5-nitrophenyl)carboxamide]
11 nM	O=C(Nc1ccc(NS(=O)(=O)c2ccccc2)cc1)c1cc([N+](=O)[O-])ccc1Cl [Example 127, N-(4-Benzenesulfonylaminophenyl)-(2-chloro-5-nitrophenyl)carboxamide]
11 nM	CCS(=O)(=O)Nc1ccc(-c2ccc(NC(=O)c3cc([N+](=O)[O-])ccc3Cl)cc2)cc1 [Example 130, N-[4-(4-Ethanesulfonylaminophenyl)phenyl]-(2-chloro-5-nitrophenyl)carboxamide]
110 nM	O=C(Nc1cnccn1)c1cc([N+](=O)[O-])ccc1Cl [Example 140, N-(Pyrazin-2-yl)-(2-chloro-5-nitrophenyl)carboxamide]
12 nM	O=C(Nc1ccc(S(=O)(=O)N2CCCCC2)cc1)c1cc([N+](=O)[O-])ccc1Cl [Example 151, N-[4-(Piperidyisulfonyl)phenyl]-(2-chloro-5-nitrophenyl)carboxamide]
49 nM	O=C(Nc1ccc(S(=O)(=O)N2CCOCC2)cc1)c1cc([N+](=O)[O-])ccc1Cl [Example 153, N-[4-(Morpholin-4-ylsulfonyl)phenyl]-(2-chloro-5-nitrophenyl)carboxamide]
9.8 nM	CC(=O)c1ccc(NC(=O)c2cc([N+](=O)[O-])ccc2Cl)cc1 [Example 155, N-(4-Acetylphenyl)-(2-chloro-5-nitrophenyl)carboxamide]
100 nM	CC(=O)c1cccc(NC(=O)c2cc([N+](=O)[O-])ccc2Cl)c1 [Example 156, N-(3-Acetylphenyl)-(2-chloro-5-nitrophenyl)carboxamide]
11 nM	O=C(Nc1ccc(C(=O)N2CCCCC2)cc1)c1cc([N+](=O)[O-])ccc1Cl [Example 159, N-[4-(Piperidylcarbonyl)phenyl]-(2-chloro-5-nitrophenyl)carboxamide]
9.4 nM	O=C(Nc1ccc(-n2ccnc2)cc1)c1cc([N+](=O)[O-])ccc1Cl [Example 174, N-[4-(Imidazol-1-yl)phenyl]-(2-chloro-5-nitrophenyl)carboxamide]
99 nM	CC(C)(C)c1cc(NS(=O)(=O)c2ccc(NC(=O)c3cc([N+](=O)[O-])ccc3Cl)cc2)cc(C(C)(C)C)c1O [Example 175, N-[4-[(3,5-di-tert-Butyl-4-hydroxyphenyl)aminosulfonyl]phenyl]-(2-chloro-5-nitrophenyl)carboxamide]
94 nM	O=C(Nc1ccc(-c2ccc(N3CCCCC3)cc2)cc1)c1cc([N+](=O)[O-])ccc1Cl [Example 177, N-[4-[4-(Piperidin-1-yl)phenyl]phenyl]-(2-chloro-5-nitrophenyl)carboxamide]
33 nM	CCCCCCN(CC)c1ccc(NC(=O)c2cc([N+](=O)[O-])ccc2Cl)cc1 [Example 188, N-[4-(N-Ethyl-N-hexylamino)phenyl]-(2-chloro-55 nitrophenyl)carboxamide]
330 nM	CCCN(CCC)c1ccc(-c2ccc(NC(=O)c3cc([N+](=O)[O-])ccc3Cl)cc2)cc1 [Example 194, N-[4-[4-(N,N-Dipropylamino)phenyl]phenyl]-(2-chloro-5-nitrophenyl)carboxamide]
81 nM	N-[3-(Pyrrolidinylsulfonyl)phenyl]-(2-chloro-5-nitrophenyl)carboxamide [Example 154]
7.6 nM	N-[4-(4-Methylbenzoylamino)phenyl]phenyl]-(2-chloro-5-nitrophenyl)carboxamide [Example 122]
35 nM	N-[4-(Benzenesulfonylaminophenyl)phenyl]-(2-chloro-5-nitrophenyl)carboxamide [Example 128]
48 nM	N-[4-[4-(Pyrrolidin-1-ylamino)phenyl]phenyl]-(2-chloro-5-nitrophenyl)carboxamide [Example 171]

Compound	IC50
O=C(Nc1ccc(Cl)nn1)c1cc([N+](=O)[O-])ccc1Cl [Example 89]	400 nM
CC(C)(C)OC(=O)Nc1ccc(-c2csc(NC(=O)c3cc([N+](=O)[O-])ccc3Cl)n2)cc1 [Example 190, N-[4-(4-tert-Butoxycarbonylaminophenyl)thiazol-2-yl]-(2-chloro-5-nitrophenyl)carboxamide]	36 nM

Source: patent US20030134859A1 (SANKYO COMPANY, LIMITED, priority 2000, published 2003)
